Laboratory results reported in US9505768B2, “Compositions and methods for modulating TLR4” (The Regents of the University of California, priority 2012, dated 2016).

Key:
Format in all cases: cell-based
mouse TLR4 = biological target: T1, mouse TLR4 (Mus musculus, UniProt Q9JHF9+Q9QUK6); test: Murine TLR4 HEK Blue NFκB/SEAP reporter assay; details: for mouse TLR4, area under curve (AUC) values normalized to Cmpd 1: mTLR4 HEK transfectoma, 312 nM to 10 μM, Cmpd 1 set at 100
T1 construct: host or cells: HEK293 (HEK Blue) cells with NFκB/SEAP reporter
T1 sequence (Q9QUK6 26-835): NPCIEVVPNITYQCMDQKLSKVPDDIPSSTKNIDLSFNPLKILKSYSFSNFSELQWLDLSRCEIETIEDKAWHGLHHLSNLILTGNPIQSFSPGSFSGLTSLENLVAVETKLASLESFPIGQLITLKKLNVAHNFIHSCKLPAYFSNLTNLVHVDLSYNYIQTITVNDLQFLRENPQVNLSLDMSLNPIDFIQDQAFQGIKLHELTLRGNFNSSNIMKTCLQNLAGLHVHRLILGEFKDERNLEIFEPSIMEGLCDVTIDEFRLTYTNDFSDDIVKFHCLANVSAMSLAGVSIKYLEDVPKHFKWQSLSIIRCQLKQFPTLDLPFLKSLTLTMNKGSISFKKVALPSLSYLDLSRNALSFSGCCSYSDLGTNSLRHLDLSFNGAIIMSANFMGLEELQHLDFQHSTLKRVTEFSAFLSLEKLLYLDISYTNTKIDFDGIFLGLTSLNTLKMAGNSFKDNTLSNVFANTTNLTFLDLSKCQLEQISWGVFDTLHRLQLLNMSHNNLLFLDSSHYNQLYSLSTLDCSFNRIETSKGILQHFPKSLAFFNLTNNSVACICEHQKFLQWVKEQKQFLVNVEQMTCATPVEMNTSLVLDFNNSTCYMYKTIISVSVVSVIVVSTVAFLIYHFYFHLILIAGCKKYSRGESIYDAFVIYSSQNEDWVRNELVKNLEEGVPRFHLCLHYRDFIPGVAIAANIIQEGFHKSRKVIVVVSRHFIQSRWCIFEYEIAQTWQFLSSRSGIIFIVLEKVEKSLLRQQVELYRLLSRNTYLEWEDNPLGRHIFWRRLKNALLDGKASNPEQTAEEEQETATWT
T1 sequence (Q9JHF9 19-160): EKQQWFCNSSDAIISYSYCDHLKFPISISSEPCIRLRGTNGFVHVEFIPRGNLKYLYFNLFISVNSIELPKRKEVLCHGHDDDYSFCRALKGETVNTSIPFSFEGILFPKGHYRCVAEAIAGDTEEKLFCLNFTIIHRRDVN
Procedure: (§1) The above assays were utilized to compare the derivatives of the lead pyrimidoindole for their ability to activate mouse and human TLR4. […] Each cytokine induction curve was first converted to a percent activity curve, and then the AUC of the percent activity curve was calculated. The process of converting to a percent activity curve allowed subtracting background and adjusting for plate-to-plate variation.
(§2) The culture supernatants were harvested after a 20-24 h incubation period. SEAP activity in the supernatants was determined by a colorimetric assay, using either the SEAPorter Assay Kit (Imgenex), with absorbance read at 405 nm, or QuantiBlue (Invivogen), with absorbance read at 630 nm.

human TLR4 = biological target: T2, human TLR4 (Homo sapiens, UniProt O00206+Q9Y6Y9); test: Human TLR4 HEK Blue NFκB/SEAP reporter assay; details: for human TLR4, values normalized to Cmpd 1: hTLR4 HEK293 transfectoma, all compounds tested at 10 μM, Cmpd 1 set at 100
T2 construct: host or cells: HEK293 (HEK Blue) cells with NFκB/SEAP reporter
Procedure: as §1, §2

[1] = system: mouse bone marrow derived dendritic cells (mBMDC); test: IL-6 induction in mouse bone marrow derived dendritic cells (ELISA); details: relative to Cmpd 1 / within series
Procedure: as §1
BMDC were prepared from C57BL/6 mice as described. See e.g., Wu, C. […] BMDC (10^5 cells per well) were plated in 96-well plates in 200 μL of complete RPMI1640 supplemented with 10% fetal calf serum (FCS; Sigma Aldrich), 100 U/mL penicillin, and 100 μg/mL streptomycin (Invitrogen). […] After 18 h incubation, the cell culture supernatants were collected. LPS (purified LPS, Invivogen, San Diego, Calif.) or MPLA (1 μg/mL synthetic MPLA, Invivogen, San Diego, Calif.) were used as positive controls. […] The AUC was calculated from BMDC dose-response curves using Prism 5 (GraphPad, San Diego). Each cytokine induction curve was first converted to a percent activity curve, and then the AUC of the percent activity curve was calculated. The process of converting to a percent activity curve allowed subtracting background and adjusting for plate-to-plate variation.

T2 sequence (O00206 24-839): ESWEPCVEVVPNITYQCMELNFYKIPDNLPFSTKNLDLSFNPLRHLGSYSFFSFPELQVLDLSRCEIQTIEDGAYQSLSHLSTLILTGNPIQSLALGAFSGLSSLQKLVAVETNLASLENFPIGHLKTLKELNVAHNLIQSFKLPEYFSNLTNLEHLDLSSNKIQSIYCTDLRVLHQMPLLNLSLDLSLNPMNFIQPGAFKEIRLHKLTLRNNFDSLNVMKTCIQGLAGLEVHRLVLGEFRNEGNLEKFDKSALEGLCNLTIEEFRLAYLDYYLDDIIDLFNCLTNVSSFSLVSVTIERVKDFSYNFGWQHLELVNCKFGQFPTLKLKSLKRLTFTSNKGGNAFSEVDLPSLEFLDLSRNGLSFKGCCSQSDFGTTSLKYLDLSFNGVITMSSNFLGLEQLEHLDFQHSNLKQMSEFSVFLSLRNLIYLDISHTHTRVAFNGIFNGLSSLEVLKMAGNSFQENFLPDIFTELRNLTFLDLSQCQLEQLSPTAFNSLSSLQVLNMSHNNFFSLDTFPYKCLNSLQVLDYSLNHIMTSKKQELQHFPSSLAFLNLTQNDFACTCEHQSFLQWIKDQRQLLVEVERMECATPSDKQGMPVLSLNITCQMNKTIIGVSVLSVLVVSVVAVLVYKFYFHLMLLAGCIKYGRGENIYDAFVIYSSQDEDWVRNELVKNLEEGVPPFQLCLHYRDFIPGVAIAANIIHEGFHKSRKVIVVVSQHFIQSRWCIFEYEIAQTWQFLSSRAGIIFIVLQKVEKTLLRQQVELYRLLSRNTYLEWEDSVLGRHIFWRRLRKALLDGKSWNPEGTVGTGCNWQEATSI
T2 sequence (Q9Y6Y9 19-160): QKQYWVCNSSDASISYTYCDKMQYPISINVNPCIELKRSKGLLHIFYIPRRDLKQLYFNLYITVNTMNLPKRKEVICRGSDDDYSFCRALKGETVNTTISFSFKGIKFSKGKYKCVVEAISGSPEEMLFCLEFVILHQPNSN

| Compound | mouse TLR4, area under curve (AUC) values normalized to Cmpd 1 (mouse TLR4) | human TLR4, values normalized to Cmpd 1 (human TLR4) | mouse TLR4 reporter cell activation (in words) (mouse TLR4) | human TLR4 reporter cell activation (in words) (human TLR4) | IL-6 activity in mBMDC (in words) [1] |
| --- | --- | --- | --- | --- | --- |
| CCCCCn1c2ccccc2c2nc(SCC(=O)NC3CCCCC3)n(-c3ccccc3)c(=O)c21 [Compound 49, N-cyclohexyl-2-((4-oxo-5-pentyl-3-phenyl-4,5-dihydro-3H-pyrimido[5,4-b]indol-2-yl)thio)acetamide] | 6 | 11 |  |  |  |
| CCCCCCCCCCCCn1c2ccccc2c2nc(SCC(=O)NC3CCCCC3)n(-c3ccccc3)c(=O)c21 [Compound 50, N-cyclohexyl-2-((5-dodecyl-4-oxo-3-phenyl-4,5-dihydro-3H-pyrimido[5,4-b]indol-2-yl)thio)acetamide] | 4 | 10 |  |  |  |
| O=C(CSc1nc2c([nH]c3ccccc32)c(=O)n1-c1ccccc1)NC1CCNCC1 [Compound 34, 2-((4-oxo-3-phenyl-4,5-dihydro-3H-pyrimido[5,4-b]indol-2-yl)thio)-N-(piperidin-4-yl)acetamide] | <1 | <1 |  |  |  |
| CCCCNC(=O)CSc1nc2c([nH]c3ccccc32)c(=O)n1-c1ccccc1 [Compound 23, N-butyl-2-((4-oxo-3-phenyl-4,5-dihydro-3H-pyrimido[5,4-b]indol-2-yl)thio)acetamide] | 31 | 32 |  |  | somewhat less active |
| O=C(CSc1nc2c([nH]c3ccccc32)c(=O)n1-c1ccccc1)NCc1ccco1 [Compound 19, N-(furan-2-ylmethyl)-2-((4-oxo-3-phenyl-4,5-dihydro-3H-pyrimido[5,4-b]indol-2-yl)thio)acetamide] | 5 | 27 |  |  |  |
| O=C(CSc1nc2c([nH]c3ccccc32)c(=O)n1C1CCCCC1)NC1CCCCC1 [Compound 36, N-cyclohexyl-2-((3-cyclohexyl-4-oxo-4,5-dihydro-3H-pyrimido[5,4-b]indol-2-yl)thio)acetamide] | 56 | 40 |  |  | some loss of activity |
| O=C(CSc1nc2c([nH]c3ccccc32)c(=O)n1-c1ccccc1)NC1CCCC1 [Compound 11, N-cyclopentyl-2-((4-oxo-3-phenyl-4,5-dihydro-3H-pyrimido[5,4-b]indol-2-yl)thio)acetamide] | 28 | 23 |  |  |  |
| COC(=O)CCCn1c2ccccc2c2nc(SCC(=O)NC3CCCCC3)n(-c3ccccc3)c(=O)c21 [Compound 44, Methyl 4-(2-((2-(cyclohexylamino)-2-oxoethyl)thio)-4-oxo-3-phenyl-3H-pyrimido[5,4-b]indol-5(4H)-yl)butanoate] | 9 | 19 | good activity | good activity | very little IL-6 |
| O=C(CSc1nc2c([nH]c3ccccc32)c(=O)n1-c1ccccc1)Nc1ccc2cn[nH]c2c1 [Compound 20, N-(1H-indazol-6-yl)-2-((4-oxo-3-phenyl-4,5-dihydro-3H-pyrimido[5,4-b]indol-2-yl)thio)acetamide] | <1 | <1 |  |  |  |
| NC(=O)Cn1c2ccccc2c2nc(SCC(=O)NC3CCCCC3)n(-c3ccccc3)c(=O)c21 [Compound 52, 2-((5-(2-amino-2-oxoethyl)-4-oxo-3-phenyl-4,5-dihydro-3H-pyrimido[5,4-b]indol-2-yl)thio)-N-cyclohexylacetamide] | 8 | 11 |  |  |  |
| O=C(CSc1nc2c([nH]c3ccccc32)c(=O)n1-c1ccccc1)Nc1ccc2ccccc2c1 [Compound 18, N-(naphthalen-2-yl)-2-((4-oxo-3-phenyl-4,5-dihydro-3H-pyrimido[5,4-b]indol-2-yl)thio)acetamide] | 2 | 21 |  |  |  |
| CCCCCCNC(=O)CSc1nc2c([nH]c3ccccc32)c(=O)n1-c1ccccc1 [Compound 25, N-hexyl-2-((4-oxo-3-phenyl-4,5-dihydro-3H-pyrimido[5,4-b]indol-2-yl)thio)acetamide] | 4 | 8 |  |  |  |
| CCCCCCCC/C=C\CCCCCCCC(=O)OCC(COP(=O)(O)OCCNC(=O)CSc1nc2c([nH]c3ccccc32)c(=O)n1-c1ccccc1)OC(=O)CCCCCCC/C=C\CCCCCCCC (centres unmarked) [Compound 35, (Z)-3-((hydroxy(2-(2-((4-oxo-3-phenyl-4,5-dihydro-3H-pyrimido[5,4-b]indol-2-yl)thio)acetamido)ethoxy)phosphoryl)oxy)propane-1,2-diyl dioleate] | <1 | <1 |  |  |  |

Further lines, with some results ahead:

| mouse TLR4, area under curve (AUC) values normalized to Cmpd 1 (mouse TLR4) | human TLR4, values normalized to Cmpd 1 (human TLR4) | mouse TLR4 reporter cell activation (in words) (mouse TLR4) | human TLR4 reporter cell activation (in words) (human TLR4) | Compound | IL-6 activity in mBMDC (in words) [1] |
| --- | --- | --- | --- | --- | --- |
| 56 | 38 |  |  | CC(C)CCNC(=O)CSc1nc2c([nH]c3ccccc32)c(=O)n1-c1ccccc1 [Compound 27, N-isopentyl-2-((4-oxo-3-phenyl-4,5-dihydro-3H-pyrimido[5,4-b]indol-2-yl)thio)acetamide] | somewhat less active |
| 24 | 21 |  |  | CC(C)CNC(=O)CSc1nc2c([nH]c3ccccc32)c(=O)n1-c1ccccc1 [Compound 26, N-isobutyl-2-((4-oxo-3-phenyl-4,5-dihydro-3H-pyrimido[5,4-b]indol-2-yl)thio)acetamide] | somewhat less active |
| 42 | 23 |  |  | CCCCCNC(=O)CSc1nc2c([nH]c3ccccc32)c(=O)n1-c1ccccc1 [Compound 24, 2-((4-oxo-3-phenyl-4,5-dihydro-3H-pyrimido[5,4-b]indol-2-yl)thio)-N-pentylacetamide] |  |
| <1 | 6 |  |  | CC(C)(C)NC(=O)CSc1nc2c([nH]c3ccccc32)c(=O)n1-c1ccccc1 [Compound 32, N-(tert-butyl)-2-((4-oxo-3-phenyl-4,5-dihydro-3H-pyrimido[5,4-b]indol-2-yl)thio)acetamide] |  |
| 2 | 12 |  |  | O=C(CSc1nc2c([nH]c3ccccc32)c(=O)n1-c1ccccc1)Nc1nccs1 [Compound 21, 2-((4-oxo-3-phenyl-4,5-dihydro-3H-pyrimido[5,4-b]indol-2-yl)thio)-N-(thiazol-2-yl)acetamide] |  |
| <1 | 8 |  |  | CCNC(=O)CSc1nc2c([nH]c3ccccc32)c(=O)n1-c1ccccc1 [Compound 22, N-ethyl-2-((4-oxo-3-phenyl-4,5-dihydro-3H-pyrimido[5,4-b]indol-2-yl)thio)acetamide] |  |
| 8 | 11 |  |  | CCC(CC)NC(=O)CSc1nc2c([nH]c3ccccc32)c(=O)n1-c1ccccc1 [Compound 31, 2-((4-oxo-3-phenyl-4,5-dihydro-3H-pyrimido[5,4-b]indol-2-yl)thio)-N-(pentan-3-yl)acetamide] |  |
